US20160120915A1, “METHODS FOR MANIPULATING IMMUNE RESPONSES BY ALTERING MICROBIOTA” (NEW YORK UNIVERSITY, priority 2013, published 2016)
Structures can show the parent of a compound that is named as a salt.

Legend:
ileal tissue structure = experiment: Ileal atrophy scoring in H&E stained ileum; type: in vivo, C57BL/6J mice; conditions: 4-week old mice, n=5 each, p<0.05 Mann-Whitney U, vs control
From the text: Atrophy was scored in hematoxylin and eosin (H&E) stained ileum samples from 4-week old control and STAT mice (n=5 each).
Ileal tissues from 4-week-old control and STAT mice were formalin fixed and paraffin embedded, cut, and stained with hemotoxylin and eosin (H&E). 4 slides were scored for ileal atrophy per mouse and the average score per mouse was averaged.

ileal tissue = experiment: Ileal gene expression profiling by whole genome microarray, 8-week EarlySTAT; type: in vivo, C57BL/6J mice
Method: Ileal gene expression profiling of STAT, PAT, and control animal groups, was performed using the Affymetrix Genechip system (Affymetrix). Total RNA quality and quantity were determined using the Agilent 2100 Bioanalyser and Nanodrop ND-1000. Total RNA (100 ng) was used to prepare cDNA following the Affymetrix […] Express Kit labelling protocol (Affymetrix). Standardized array processing procedures recommended by Affymetrix were performed, including hybridization, fluidics processing and scanning of the Affymetrix MG-430 2.0 arrays. GeneSpring GX11 software (Agilent Technologies) was used to normalize the raw data (Affymetrix CEL files) by Robust Multichip Average algorithm (RMA).
997 reproducibly regulated genes were identified from ˜45,000 genes of the mouse genome by T-test (p<0.05) and fold change (≧1.2 or ≦0.8) in 8-week STAT mice (FIG. 8). DAVID analysis was performed using the regulated genes, and Gene Set Enrichment analysis (GSEA) was performed using whole gene data.

[1] = tested on: 547 genes related to immunology in ileal tissue; experiment: Ileal gene expression profiling via Nanostring Immunology Panel, STAT; type: in vivo, C57BL6J mice; conditions: for Significant Changes Down (ileal Nanostring) / Significant Changes Total (ileal Nanostring) / Significant Changes Up (ileal Nanostring): 8-week old mice
Method: RNA was extracted from ileal tissue using the miRNeasy mini kit (Qiagen, Redwood City, Calif., USA) at 8 weeks of age and the expression levels of 547 genes related to immunology were measured by nCounter GX Mouse Immunology Kit (Nanostring Technologies, Seattle, Wash., USA). Significant differences between treatment and control were determined by t-test. For functional characterization, the significant changes were analyzed by Ingenuity Pathway Analysis (Qiagen, Redwood City, Calif.).
Specifically, STAT decreased 111 and 74 genes and increased only 1 and 7 genes in male and female mice, respectively, with numerous consistencies across gender (FIG. 10A-C and Table 2).

terminal ileum = experiment: PAT: ileal expression by qPCR in 6-week mice; type: in vivo, C57BL/6 mice; conditions: 6-week male mice, 3 pulses, vs control, p<0.05
[2] = tested on: small intestine lamina propria lymphocytes; experiment: EL-PAT: flow cytometry of small intestine lamina propria lymphocytes; type: in vivo, C57BL/6 mice; conditions: 7-week old; for small intestine CD4+ IL-17A+ (IL-17A expression): males, vs control
Method: For the experiments, dams and their litters were divided into control and antibiotic groups. In the EL-PAT study dams in the antibiotic groups received Tylosin tartrate (Sigma Aldrich, St. Louis Mo.) dissolved in distilled deionized water (neutral pH) at a concentration of 0.33 mg/ml, and dams in the control group received non-acidified water. Mice in the PAT3 group received two additional doses of antibiotics at day 27 and 36 of life for 3 days. In some experiments, C57BL/6 mice were exposed to one, PAT1, (n=17, M=9, F=8) or three, PAT3, (n=19, M=10, F=9) doses of the macrolide Tylosin in non-acidified water or non-acidified water alone (control, n=12, M=9, F=3), early-in-life, to mirror pediatric antibiotic exposures. For the first antibiotic pulse […] of Tylosin tartrate (Sigma) was dissolved in 250 ml of non-acidified water and given to PAT1 and PAT3 lactating dams at pup day 5 of life for 5 days. For the second and third pulse, pups received the antibiotic directly at day 27 and day 36 of life respectively, for three days. Mice were sacrificed at 7 weeks of age and fecal, ileal and cecal contents were collected. Throughout the experiment mouse weight and fecal contents were collected. After euthanasia of the mice by CO2 asphyxiation, small intestines were excised and placed in cold calcium and magnesium-free HBSS supplemented with HEPES-Bicarbonate and 5% FBS (CMF). Peyer's patches were removed and the intestine was opened longitudinally along its entire length. Intestinal contents were removed by washing thoroughly with cold CMF and treated with 1 mM DTT to remove contaminating intra-epithelial lymphocytes. Subsequently, the intestinal tissue was treated twice with 1.3 mM EDTA to remove epithelial cells. To isolate lamina propria lymphocytes, intestinal tissue was cut laterally into ˜0.5 cm pieces and digested in collagenase IV digestion mix (0.5 mg/ml of collagenase IV, 200 ug/ml of DNase 1 suspended in RPMI supplemented with 10% FBS and HEPES for 1 hour. For each digestion procedure, samples were incubated at 37° C. with vigorous shaking After each treatment, cell isolates were filtered through 100 μm diameter nylon mesh (BD Bioscience). For further purification of leukocytes, intestinal cell suspensions were subjected to a 44% /67% discontinuous Percoll (GE Healthcare Life Sciences) gradient. Cells were spun at 2,200 rpm for 20 minutes and collected at the 44% /67% Percoll interface. Viable cells were carefully removed from the interface, washed, and suspended in RPMI complete media. […] All cells were acquired on a LSRII (BD Bioscience) and analyzed using FlowJo software (version 9.3.2; Tree Star Inc.). […]

## CC1(C)S[C@@H]2[C@H](NC(=O)COc3ccccc3)C(=O)N2[C@H]1C(=O)[O-].[K+] [STAT, penicillin VK]
Ileal tissue structure
  ileal atrophy: significantly more
Ileal tissue; 8-week STAT mice, T-test p<0.05 and fold change ≧1.2 or ≦0.8
  reproducibly regulated genes out of ~45,000 genes of the mouse genome: 997
Ileal tissue; 8-week, STAT vs control
  SAA1 expression in ileal tissue (microarray/GSEA): strong down-regulation
[1]; STAT-Female vs control
  Significant Changes Down (ileal Nanostring): 74
  Significant Changes Total (ileal Nanostring): 81
  Significant Changes Up (ileal Nanostring): 7
[1]; STAT-Male vs control
  Significant Changes Down (ileal Nanostring): 111
  Significant Changes Total (ileal Nanostring): 112
[1]; STAT-Male vs control, n=4 per group, t-test <0.05
  Significant Changes Up (ileal Nanostring): 1
[1]; Shared: STAT-F + Recip-F
  Significant Changes Down, shared: 1
  Significant Changes Total, shared: 1
  Significant Changes Up, shared: 0
[1]; Shared: STAT-M + Recip-F
  Significant Changes Down, shared: 3
  Significant Changes Total, shared: 3
  Significant Changes Up, shared: 0
[1]; Shared: STAT-M + STAT-F
  Significant Changes Down, shared: 37
  Significant Changes Total, shared: 37
  Significant Changes Up, shared: 0

## CC[C@H]1OC(=O)C[C@@H](O)[C@H](C)[C@@H](O[C@@H]2O[C@H](C)[C@@H](O[C@H]3C[C@@](C)(O)[C@@H](O)[C@H](C)O3)[C@H](N(C)C)[C@H]2O)[C@@H](CC=O)C[C@@H](C)C(=O)/C=C/C(C)=C/[C@@H]1CO[C@@H]1O[C@H](C)[C@@H](O)[C@@H](OC)[C@H]1OC [Tylosin, Tylosin tartrate]
Terminal ileum
  ileal Relmβ expression: significantly lower
[2]; females, three antibiotic doses, p<0.01
  intestinal CD4+ IL-17A+ populations: significantly decreased
[2]; females, three therapeutic doses, p<0.05
  CD4− IL-17A+ populations: decreased
[2]; one therapeutic dose
  small intestine CD4+ IL-17A+ (IL-17A expression): significantly decreased
[2]; three therapeutic doses
  small intestine CD4+ IL-17A+ (IL-17A expression): significantly decreased
